Values of other authors in patent US12268662B2, “Formulations comprising carbachol and brimonidine to enhance anti- presbyopia effects” (VISUS THERAPEUTICS, INC., priority 2021, dated 2025).

How the values were obtained:
[1] = not given; remark: listed apart in the source
[2] = not given; remark: listed apart in the source

## C[N+](C)(C)CCOC(N)=O [Carbachol]
other
  pKa: about 15
[1]
  solubility: 1 gm/mL
[2]
  log P: −3.78
